# Reference: patent publication US8846669B2, “Oxazolidinone derivative and medical composition containing same” (Legochem Biosciences, Inc., priority 2011, dated 2014)
# Like-named read-outs stand apart in the source and are kept apart here.
# Tests used:
# Test in all cases: In vitro antibacterial activity, broth microdilution MIC90
# Assay type in all cases: cell-based
# [1] = system: Enterococcus faecalis; details: Enterococcus faecalis
# Procedure: (§1) MIC90 was measured by broth microdilution method based on CLSI standards [reference: Clinical and Laboratory Standards Institute Document. (2000) Methods for Dilution Antimicrobial Susceptibility Test for Bacteria that Grow Aerobically-Fifth Edition: M7-A5. CLSI, Villanova, Pa.].
# (§2) Activities of 12 strains including Staphylococcus aureus, Methicillin Resistant Staphylococcus aureus, Staphylococcus epidermidis, Methicillin Resistant Staphylococcus epidermidis, Enterococcus faecalis, Vancomycin Resistant Enterococcus faecalis, Linezolid and Vancomycin Resistant Enterococcus faecalis, Enterococcus faecium, Vancomycin Resistant Enterococcus faecium, Linezolid and Vancomycin Resistant Enterococcus faecium, and Moraxella catarrhalis, were measured, and results are shown in Table 1 below.
# (§3) The final concentration of test material in the antibacterial test was from 0.063 μg/mL (minimum) to 128 μg/mL (maximum), and the final concentration of DMSO used as an excipient was 2.5% (V/V). Linezolid represented by Formula B below (manufactured by Pfizer) was used as a control and bacterial activity thereof was compared with those of the test materials.
# [2] = system: Staphylococcus aureus; details: Staphylococcus aureus
# Procedure: as §1, §2, §3
# [3] = system: Vancomycin Resistant Enterococcus faecalis; details: Enterococcus faecalis
# Procedure: as §1, §2, §3
# [4] = system: Linezolid and Vancomycin Resistant Enterococcus faecium (strain 11); details: Enterococcus faecium
# Procedure: as §1, §2, §3
# [5] = system: Linezolid and Vancomycin Resistant Enterococcus faecium (strain 10); details: Enterococcus faecium
# Procedure: as §1, §2, §3
# [6] = system: Methicillin Resistant Staphylococcus epidermidis; details: Staphylococcus epidermidis
# Procedure: as §1, §2, §3
# [7] = system: Staphylococcus epidermidis; details: Staphylococcus epidermidis
# Procedure: as §1, §2, §3
# [8] = system: Linezolid and Vancomycin Resistant Enterococcus faecalis; details: for MIC90: Enterococcus faecalis
# Procedure: as §1, §2, §3
# [9] = system: Vancomycin Resistant Enterococcus faecium; details: Enterococcus faecium
# Procedure: as §1, §2, §3
# [10] = system: Methicillin Resistant Staphylococcus aureus; details: Staphylococcus aureus
# Procedure: as §1, §2, §3
# [11] = system: Enterococcus faecium; details: Enterococcus faecium
# Procedure: as §1, §2, §3
# [12] = system: Moraxella catarrhalis; details: Moraxella catarrhalis
# Procedure: as §1, §2, §3
# [13] = strain 5, E. faecalis, read-out: MIC90
# [14] = strain 1, S. aureus, read-out: MIC90
# [15] = strain 6, E. faecalis VanA, read-out: MIC90
# [16] = strain 11, E. faecium VanA LR, read-out: MIC90
# [17] = strain 10, E. faecium VanA LR, read-out: MIC90
# [18] = strain 4, S. epidermidis MR, read-out: MIC90
# [19] = strain 3, S. epidermidis, read-out: MIC90
# [20] = strain 7, E. faecalis VanA LR, read-out: MIC90
# [21] = strain 9, E. faecium VanA, read-out: MIC90
# [22] = strain 2, S. aureus MR, read-out: MIC90
# [23] = strain 8, E. faecium, read-out: MIC90
SMILES,MIC90 [1] [µg/mL],MIC90 [2] [µg/mL],MIC90 [3] [µg/mL],MIC90 [4] [µg/mL],MIC90 [5] [µg/mL],MIC90 [6] [µg/mL],MIC90 [7] [µg/mL],MIC90 [8] [µg/mL],MIC90 [9] [µg/mL],MIC90 [10] [µg/mL],MIC90 [11] [µg/mL],MIC90 [12] [µg/mL],further results
CC(=O)NC[C@H]1CN(c2ccc(-c3ccc(N4C=NN(C=O)CC4)nc3)c(F)c2)C(=O)O1 [Compound 1],–,–,–,–,–,–,–,–,–,–,–,–,"MIC90 [1, 13]: 0.5 µg/mL; MIC90 [2, 14]: 0.5 µg/mL; MIC90 [3, 15]: 0.5 µg/mL; MIC90 [4, 16]: 2 µg/mL; MIC90 [5, 17]: 2 µg/mL; MIC90 [6, 18]: 1 µg/mL; MIC90 [7, 19]: 0.25 µg/mL; MIC90 [8, 20]: 2 µg/mL; MIC90 [9, 21]: 0.5 µg/mL; MIC90 [10, 22]: 1 µg/mL; MIC90 [11, 23]: 0.5 µg/mL; MIC90 ([12]; strain 12, M. catarrhalis, read-out: MIC90): 2 µg/mL"
CC(=O)NC[C@H]1CN(c2ccc(-c3ccc(N4C=NNCC4)nc3)c(F)c2)C(=O)O1 [Compound 2],0.5,0.5,0.5,2,2,1,0.5,2,0.5,1,0.5,4,–
CC(=O)NC[C@H]1CN(c2ccc(-c3ccc(N4C=NN(C)CC4)nc3)c(F)c2)C(=O)O1 [Compound 3],0.25,0.063,0.125,0.5,0.5,0.5,0.125,0.5,0.125,0.5,0.063,0.25,antibacterial activity against linezolid-resistant bacteria (in words) ([8]; Enterococcus faecalis and Enterococcus faecium which are resistant to linezolid): very high antibacterial activity
CCN1CCN(c2ccc(-c3ccc(N4C[C@H](CNC(C)=O)OC4=O)cc3F)cn2)C=N1 [Compound 4],0.5,0.5,0.5,2,2,1,0.5,2,0.5,1,0.5,2,–
CCOC(=O)CN1CCN(c2ccc(-c3ccc(N4C[C@H](CNC(C)=O)OC4=O)cc3F)cn2)C=N1 [Compound 5],0.5,0.5,0.5,2,2,1,0.5,2,0.5,1,0.5,–,–
CC(=O)NC[C@H]1CN(c2ccc(-c3ccc(N4C=NN(CCO)CC4)nc3)c(F)c2)C(=O)O1 [Compound 6],–,–,–,–,–,–,–,–,–,–,–,–,"MIC90 [1, 13]: 0.5 µg/mL; MIC90 [2, 14]: 0.5 µg/mL; MIC90 [3, 15]: 0.5 µg/mL; MIC90 [4, 16]: 2 µg/mL; MIC90 [5, 17]: 2 µg/mL; MIC90 [6, 18]: 1 µg/mL; MIC90 [7, 19]: 0.5 µg/mL; MIC90 [8, 20]: 2 µg/mL; MIC90 [9, 21]: 0.5 µg/mL; MIC90 [10, 22]: 1 µg/mL; MIC90 [11, 23]: 0.5 µg/mL"
C=CCN1CCN(c2ccc(-c3ccc(N4C[C@H](CNC(C)=O)OC4=O)cc3F)cn2)C=N1 [Compound 7],0.5,0.5,1,4,4,1,0.5,4,1,1,1,2,–
C#CCN1CCN(c2ccc(-c3ccc(N4C[C@H](CNC(C)=O)OC4=O)cc3F)cn2)C=N1 [Compound 8],0.5,0.25,1,4,4,1,0.5,4,0.5,1,1,2,–
